From ChEMBL document CHEMBL6153147 (J Med Chem, 2025)

How the values were obtained:
[1] = Metabolic stability in mouse liver microsomes assessed as intrinsic clearance in microsome measured per mg protein preincubated for 5 mins followed by NADPH addition by LC-MS/MS analysis; type: ADME; settings: read-out: CLH
[2] = AUC (0 to t) in C57BL/6 mouse at 1 mg/kg, iv measured for 0.5 to […] htr by LC-MS/MS analysis; type: ADME, organism-based; settings: in vivo, time 0.5-12 hrs
[3] = AUC (0 to infinity) in C57BL/6 mouse at 10 mg/kg, po measured for 0.5 to 12 htr by LC-MS/MS analysis; type: ADME, organism-based; settings: in vivo, time 0.5-12 hrs
[4] = Tmax in C57BL/6 mouse at 1 mg/kg, iv measured for 0.5 to 12 htr by LC-MS/MS analysis; type: ADME, organism-based; settings: in vivo, time 0.5-12 hrs
[5] = Metabolic stability in mouse liver microsomes assessed as half life preincubated for 5 mins followed by NADPH addition by LC-MS/MS analysis; type: ADME, Microsome
[6] = Half life in C57BL/6 mouse at 1 mg/kg, iv measured for 0.5 to 12 htr by LC-MS/MS analysis; type: ADME, organism-based; settings: in vivo, time 0.5-12 hrs
[7] = Metabolic stability in human liver microsomes assessed as half life preincubated for 5 mins followed by NADPH addition by LC-MS/MS analysis; type: ADME, Microsome
[8] = Half life in C57BL/6 mouse at 10 mg/kg, po measured for 0.5 to 12 htr by LC-MS/MS analysis; type: ADME, organism-based; settings: in vivo, time 0.5-12 hrs
[9] = Metabolic stability in dog liver microsomes assessed as intrinsic clearance in microsome measured per mg protein preincubated for 5 mins followed by NADPH addition by LC-MS/MS analysis; type: ADME, Canis lupus familiaris; settings: read-out: CLH
[10] = AUC (0 to t) in C57BL/6 mouse at 10 mg/kg, po measured for 0.5 to […] htr by LC-MS/MS analysis; type: ADME, organism-based; settings: in vivo, time 0.5-12 hrs
[11] = Cmax in C57BL/6 mouse at 1 mg/kg, iv measured for 0.5 to […] htr by LC-MS/MS analysis; type: ADME, organism-based; settings: in vivo, time 0.5-12 hrs
[12] = Clearance in C57BL/6 mouse at 1 mg/kg, iv measured for 0.5 to […] htr by LC-MS/MS analysis; type: ADME, organism-based; settings: in vivo, time 0.5-12 hrs
[13] = Metabolic stability in dog liver microsomes assessed as intrinsic clearance preincubated for 5 mins followed by NADPH addition by LC-MS/MS analysis; type: ADME, Canis lupus familiaris, Microsome; settings: read-out: CLH
[14] = Cmax in C57BL/6 mouse at 10 mg/kg, po measured for 0.5 to […] htr by LC-MS/MS analysis; type: ADME, organism-based; settings: in vivo, time 0.5-12 hrs
[15] = Metabolic stability in dog liver microsomes assessed as half life preincubated for 5 mins followed by NADPH addition by LC-MS/MS analysis; type: ADME, Canis lupus familiaris, Microsome
[16] = Metabolic stability in human liver microsomes assessed as intrinsic clearance in microsome measured per mg protein preincubated for 5 mins followed by NADPH addition by LC-MS/MS analysis; type: ADME; settings: read-out: CLH
[17] = Metabolic stability in human liver microsomes assessed as intrinsic clearance preincubated for 5 mins followed by NADPH addition by LC-MS/MS analysis; type: ADME, Microsome; settings: read-out: CLH
[18] = Volume of distribution at steady state in C57BL/6 mouse at 1 mg/kg, iv measured for 0.5 to 12 htr by LC-MS/MS analysis; type: ADME, organism-based; settings: in vivo, time 0.5-12 hrs, read-out: Vdss
[19] = AUC (0 to infinity) in C57BL/6 mouse at 1 mg/kg, iv measured for 0.5 to 12 htr by LC-MS/MS analysis; type: ADME, organism-based; settings: in vivo, time 0.5-12 hrs
[20] = MRT (0 to t) in C57BL/6 mouse at 1 mg/kg, iv measured for 0.5 to 12 htr by LC-MS/MS analysis; type: ADME, organism-based; settings: in vivo, time 0.5-12 hrs
[21] = C0 in C57BL/6 mouse at 1 mg/kg, iv measured for 0.5 to 12 htr by LC-MS/MS analysis; type: ADME, organism-based; settings: in vivo, time 0.5-12 hrs
[22] = MRT (0 to t) in C57BL/6 mouse at 10 mg/kg, po measured for 0.5 to 12 htr by LC-MS/MS analysis; type: ADME, organism-based; settings: in vivo, time 0.5-12 hrs
[23] = Tmax in C57BL/6 mouse at 10 mg/kg, po measured for 0.5 to 12 htr by LC-MS/MS analysis; type: ADME, organism-based; settings: in vivo, time 0.5-12 hrs
[24] = Oral bioavailability in C57BL/6 mouse at 10 mg/kg measured for 0.5 to […] htr by LC-MS/MS analysis; type: ADME, organism-based; settings: in vivo, time 0.5-12 hrs
[25] = Metabolic stability in mouse liver microsomes assessed as intrinsic clearance preincubated for 5 mins followed by NADPH addition by LC-MS/MS analysis; type: ADME, Microsome; settings: read-out: CLH
HEK-293T [26] = test: Cytotoxicity against HEK293T cells by CCK8 assay; type: toxicity, cell-based; settings: human, dose 0.1-30 µM
[27] = Solubility of compound in 0.01 M PBS at pH 7.4 assessed as fold increase equilibrated for 12 hrs by UV spectrophotometry relative to BI 2536; type: physicochemical; settings: buffer, pH 7.4, 12 h
[28] = Cytotoxicity against HEK293T cells assessed as cell viability at 30 uM by CCK8 assay relative to control; type: toxicity, cell-based, HEK-293T; settings: human, read-out: Activity
SW-620 = test: cells; settings: Homo sapiens
NCI-H460 = test: cells; settings: Homo sapiens
[29] = biological target: Serine/threonine-protein kinase PLK2 (Homo sapiens, UniProt Q9NYY3); test: Inhibition of human PLK2 using ATF2 as substrate incubated for 40 mins in presence of [gamma-33P]ATP/Mg acetate by scintillation counting analysis
CCRF-CEM = test: cells; settings: Homo sapiens
[30] = Selectivity ratio of IC50 for inhibition of human PLK3 using ATF2 as substrate to IC50 for inhibition of human PLK1 using ATF2 as substrate
HEK-293T [31] = test: Effect on mitochondrial membrane potential in HEK293T cells at 10 uM incubated for 24 hrs by MitoTracker Red probe based analysis; type: toxicity, cell-based; settings: human
PC-9 = test: cells; settings: Homo sapiens
HL-60 = test: cells; settings: Homo sapiens
[32] = biological target: Voltage-gated inwardly rectifying potassium channel KCNH2 (Homo sapiens, UniProt Q12809); test: Inhibition of hERG transfected in CHO cells; type: toxicity, cell-based
K562 = test: cells; settings: Homo sapiens
[33] = Effect on mitochondrial membrane integrity in HEK293T cells at 10 uM incubated for 24 hrs by JC-1 dye based analysis; type: toxicity, cell-based; settings: human, hek-293t
[34] = Effect on F-actin cytoskeleton in HEK293T cells at 10 uM incubated for 24 hrs by immunofluorescence based analysis; type: toxicity, cell-based; settings: human, hek-293t
[35] = biological target: Serine/threonine-protein kinase PLK1 (Homo sapiens, UniProt P53350); test: Inhibition of human PLK1 using ATF2 as substrate incubated for 40 mins in presence of [gamma-33P]ATP/Mg acetate by scintillation counting analysis
[36] = biological target: Serine/threonine-protein kinase PLK3 (Homo sapiens, UniProt Q9H4B4); test: Inhibition of human PLK3 using ATF2 as substrate incubated for 40 mins in presence of [gamma-33P]ATP/Mg acetate by scintillation counting analysis
KG-1 = test: cells; settings: Homo sapiens
[37] = Cytotoxicity against HEK293T cells assessed as inhibition of cell viability by CCK8 assay; type: toxicity, cell-based, HEK-293T; settings: human
[38] = Selectivity ratio of IC50 for inhibition of human PLK2 using ATF2 as substrate to IC50 for inhibition of human PLK1 using ATF2 as substrate
A549 = test: cells; settings: Homo sapiens

Sequence of Serine/threonine-protein kinase PLK3 (Q9H4B4 whole entry): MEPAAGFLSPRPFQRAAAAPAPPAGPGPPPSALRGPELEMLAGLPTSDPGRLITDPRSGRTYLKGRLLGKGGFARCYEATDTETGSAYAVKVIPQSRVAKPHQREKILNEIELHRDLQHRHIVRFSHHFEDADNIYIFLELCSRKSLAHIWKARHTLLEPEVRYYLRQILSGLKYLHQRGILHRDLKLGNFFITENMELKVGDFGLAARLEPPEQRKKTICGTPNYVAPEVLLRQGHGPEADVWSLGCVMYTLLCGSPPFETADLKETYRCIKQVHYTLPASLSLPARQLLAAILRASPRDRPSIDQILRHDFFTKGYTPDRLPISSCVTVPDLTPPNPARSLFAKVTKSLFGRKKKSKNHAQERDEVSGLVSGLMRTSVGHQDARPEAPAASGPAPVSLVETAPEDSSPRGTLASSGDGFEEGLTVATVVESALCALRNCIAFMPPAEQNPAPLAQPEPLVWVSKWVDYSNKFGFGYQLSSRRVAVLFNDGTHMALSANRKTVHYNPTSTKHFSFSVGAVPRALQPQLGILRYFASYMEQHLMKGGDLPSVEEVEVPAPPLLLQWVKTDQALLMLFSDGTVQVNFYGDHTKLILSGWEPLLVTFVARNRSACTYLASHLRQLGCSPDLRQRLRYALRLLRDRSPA
Sequence of Serine/threonine-protein kinase PLK2 (Q9NYY3 whole entry): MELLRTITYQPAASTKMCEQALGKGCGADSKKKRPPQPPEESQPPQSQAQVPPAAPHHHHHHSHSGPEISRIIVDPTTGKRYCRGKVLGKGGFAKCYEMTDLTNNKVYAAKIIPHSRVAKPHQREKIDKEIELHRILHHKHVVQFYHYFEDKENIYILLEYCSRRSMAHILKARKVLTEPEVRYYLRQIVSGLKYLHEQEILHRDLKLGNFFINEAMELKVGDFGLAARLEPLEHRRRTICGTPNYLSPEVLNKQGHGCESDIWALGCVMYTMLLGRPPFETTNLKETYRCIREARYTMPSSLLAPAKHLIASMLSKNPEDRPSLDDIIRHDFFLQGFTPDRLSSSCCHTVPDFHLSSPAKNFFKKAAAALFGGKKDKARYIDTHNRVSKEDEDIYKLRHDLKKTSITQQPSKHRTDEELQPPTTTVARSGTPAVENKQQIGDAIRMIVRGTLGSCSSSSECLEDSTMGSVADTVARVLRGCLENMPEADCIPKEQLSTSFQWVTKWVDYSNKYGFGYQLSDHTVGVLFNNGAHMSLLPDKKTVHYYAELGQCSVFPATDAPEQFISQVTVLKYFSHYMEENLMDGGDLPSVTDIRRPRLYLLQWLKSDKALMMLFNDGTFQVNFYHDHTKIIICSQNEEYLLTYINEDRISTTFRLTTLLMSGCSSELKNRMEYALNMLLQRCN
Sequence of Serine/threonine-protein kinase PLK1 (P53350 whole entry): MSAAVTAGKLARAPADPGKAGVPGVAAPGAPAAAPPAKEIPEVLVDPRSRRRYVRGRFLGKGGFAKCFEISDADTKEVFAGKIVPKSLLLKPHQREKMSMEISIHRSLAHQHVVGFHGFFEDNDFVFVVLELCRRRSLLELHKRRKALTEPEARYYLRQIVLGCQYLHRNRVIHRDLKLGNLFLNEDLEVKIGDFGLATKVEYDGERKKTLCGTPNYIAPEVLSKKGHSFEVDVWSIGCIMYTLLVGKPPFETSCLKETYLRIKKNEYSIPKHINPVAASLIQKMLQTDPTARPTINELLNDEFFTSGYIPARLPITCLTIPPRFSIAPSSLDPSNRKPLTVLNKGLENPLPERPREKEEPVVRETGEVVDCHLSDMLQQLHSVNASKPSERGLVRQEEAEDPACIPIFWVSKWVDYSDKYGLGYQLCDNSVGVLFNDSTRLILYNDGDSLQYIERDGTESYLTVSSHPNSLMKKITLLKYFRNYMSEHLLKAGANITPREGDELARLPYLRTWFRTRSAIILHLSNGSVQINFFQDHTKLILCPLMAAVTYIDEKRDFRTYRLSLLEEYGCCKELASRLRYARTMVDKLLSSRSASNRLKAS
Sequence of Voltage-gated inwardly rectifying potassium channel KCNH2 (Q12809 whole entry): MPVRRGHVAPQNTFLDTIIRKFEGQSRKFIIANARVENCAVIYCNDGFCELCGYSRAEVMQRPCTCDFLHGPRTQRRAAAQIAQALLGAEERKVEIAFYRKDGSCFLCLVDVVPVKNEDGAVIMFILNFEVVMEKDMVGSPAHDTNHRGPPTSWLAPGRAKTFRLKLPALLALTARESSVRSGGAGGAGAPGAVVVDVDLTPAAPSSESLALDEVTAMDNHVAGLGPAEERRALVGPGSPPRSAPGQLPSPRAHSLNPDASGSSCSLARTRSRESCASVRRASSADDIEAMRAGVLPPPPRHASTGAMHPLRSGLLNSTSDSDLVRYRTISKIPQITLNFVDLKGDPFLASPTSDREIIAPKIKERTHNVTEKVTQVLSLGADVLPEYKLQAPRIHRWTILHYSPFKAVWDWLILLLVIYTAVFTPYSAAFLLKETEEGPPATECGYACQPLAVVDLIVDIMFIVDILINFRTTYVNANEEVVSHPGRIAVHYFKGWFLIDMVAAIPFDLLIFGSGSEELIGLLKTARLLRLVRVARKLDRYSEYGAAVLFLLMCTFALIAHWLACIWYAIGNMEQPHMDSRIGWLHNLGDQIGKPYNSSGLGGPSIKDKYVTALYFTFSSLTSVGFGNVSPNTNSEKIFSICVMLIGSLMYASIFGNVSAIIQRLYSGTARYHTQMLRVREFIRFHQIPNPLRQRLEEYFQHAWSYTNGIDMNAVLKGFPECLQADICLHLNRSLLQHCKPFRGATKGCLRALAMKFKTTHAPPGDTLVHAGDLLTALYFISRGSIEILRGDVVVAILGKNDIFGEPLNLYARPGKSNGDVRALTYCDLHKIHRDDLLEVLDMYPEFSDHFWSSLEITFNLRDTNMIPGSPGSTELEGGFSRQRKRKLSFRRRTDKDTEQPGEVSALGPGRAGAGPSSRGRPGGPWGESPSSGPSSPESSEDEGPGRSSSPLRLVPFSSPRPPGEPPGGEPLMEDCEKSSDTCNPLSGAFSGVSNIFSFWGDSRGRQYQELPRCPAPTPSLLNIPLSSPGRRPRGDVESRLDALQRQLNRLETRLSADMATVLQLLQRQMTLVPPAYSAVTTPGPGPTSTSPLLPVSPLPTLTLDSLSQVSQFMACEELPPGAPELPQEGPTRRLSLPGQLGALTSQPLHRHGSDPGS

SMILES	AUC(0-t) [2] [ng·h/mL]	AUC(0-inf) [3] [ng·h/mL]	Tmax [4] [min]	half-life [6] [min]	half-life [8] [min]	AUC(0-t) [10] [ng·h/mL]	Cmax [11] [ng/mL]	clearance [12] [mL/min/kg]	Cmax [14] [ng/mL]	Vd [18] [L/kg]	AUC(0-inf) [19] [ng·h/mL]	MRT last [20] [min]	C0 [21] [ng/mL]	MRT last [22] [min]	Tmax [23] [min]	bioavailability [24] [%]	IC50 (SW-620) [nM]	IC50 (NCI-H460) [nM]	IC50 [29] [nM]	IC50 (CCRF-CEM) [nM]	other results
CC[C@@H]1C(=O)N(C)c2cnc(Nc3ccc(C(=O)NC4CCN(C)CC4)cc3OC)nc2N1C1CCCC1 [BI-2536]	116	96	4.98	41.4	84	89	175	143	40	6	117	42	227	126	25.2	8.2	–	–	–	–	microsomal CLint [1]: 34.5 µL/min/mg; half-life [5]: 40.2 min; half-life [7]: 57.4 min; microsomal CLint [9]: 50.6 µL/min/mg; CLint scaled [13]: 126 mL/min/kg; half-life [15]: 27.4 min; microsomal CLint [16]: 24.1 µL/min/mg; CLint scaled [17]: 30.3 mL/min/kg; CLint scaled [25]: 136 mL/min/kg
CC[C@@H]1C(=O)N(C)c2cnc(Nc3cc(N4CCN(C)CC4)ccc3OCCCO)nc2N1C1CCCC1	226	452	4.98	40.8	66	449	471	73	201	2.5	228	34.8	753	108	25.2	20	217	32	4940	40	Activity (HEK-293T [26]): Dose-dependent-effect; fold change (FC) [27]: > 2; viability at 30 µM [28]: 16.5%; ratio [30]: 161; Activity (HEK-293T [31]): Non-toxic; IC50 (PC-9): 164 nM; IC50 (HL-60): 53 nM; IC50 [32]: 13300 nM; IC50 (K562): 0.67 nM; Activity [33]: Non-toxic; Activity [34]: Non-toxic; IC50 [35]: 20 nM; IC50 [36]: 3230 nM; IC50 (KG-1): > 10000 nM; IC50 [37]: 38200 nM; ratio [38]: 247; IC50 (A549): 154 nM
CC[C@@H]1C(=O)N(C)c2cnc(Nc3cc(N4CCN(C)CC4)cc(F)c3OCCCO)nc2N1C1CCCC1	–	–	–	–	–	–	–	–	–	–	–	–	–	–	–	–	18	27	7900	90	ratio [30]: 178; IC50 (PC-9): 65 nM; IC50 (HL-60): 31 nM; IC50 (K562): 1780 nM; IC50 [35]: 11 nM; IC50 [36]: 2000 nM; IC50 (KG-1): 4810 nM; ratio [38]: 700; IC50 (A549): 103 nM
